Measurements from US10294202B2, “Pyrrolidinones as herbicides” (FMC Corporation, priority 2013, dated 2019).

Key:
corn = experiment: Test E preemergence herbicide test; assay type: in vivo, Zea mays; set-up: key: 0 = no effect, 100 = complete control
Text: (§1) Seeds of plant species selected from corn (Zea mays), soybean (Glycine max), velvetleaf (Abutilon theophrasti), lambsquarters (Chenopodium album), wild poinsettia (Euphorbia heterophylla), pigweed, palmer (palmer pigweed, Amaranthus palmeri), waterhemp (common waterhemp, Amaranthus rudis), surinam grass (Brachiaria decumbens), crabgrass, large (large crabgrass, Digitaria sanguinalis), crabgrass, Brazil (Brazilian crabgrass, Digitaria horizontalis), panicum, fall (fall panicum, Panicum dichotomiflorum), foxtail, giant (giant foxtail, Setaria faberii), foxtail, green (green foxtail, Setaria viridis), goosegrass (Eleusine indica), johnsongrass (Sorghum halepense), ragweed (common ragweed, Ambrosia elatior), barnyardgrass (Echinochloa crus-galli), sandbur (southern sandbur, Cenchrus echinatus), arrowleaf […] rhombifolia), ryegrass, Italian (Italian ryegrass, Lolium multiflorum), dayflower, VA (Virginia dayflower, Commelina virginica), field bindweed (Convolvulus arvensis), morningglory (Ipomoea coccinea), nightshade (eastern black nightshade, Solanum ptycanthum), kochia (Kochia scoparia), nutsedge, yellow (yellow nutsedge, Cyperus esculentus), cocklebur (common cocklebur, Xanthium strumarium), smartweed (ladysthumb smartweed, Polygonum Persicaria) and beggarticks (hairy beggarticks, Bidens pilosa), were planted into a silt loam soil and treated preemergence with test chemicals formulated in a non-phytotoxic solvent mixture which included a surfactant. Treated plants and controls were maintained in a greenhouse for 21 days, after which time all species were compared to controls and visually evaluated. Plant response ratings, summarized in Table E, are based on a scale of 0 to 100 where 0 is no effect and 100 is complete control. A dash (-) response means no test result.

ryegrass, Italian = experiment: Test E preemergence herbicide test; assay type: in vivo, Lolium multiflorum; set-up: key: 0 = no effect, 100 = complete control
In short: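 Visual injury rating, 0 (no effect) to 100 (complete control), versus controls at 21 days in greenhouse. Preemergence application to seeds planted in silt loam; compound formulated in non-phytotoxic solvent mix plus surfactant.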

kochia = experiment: Test E preemergence herbicide test; assay type: in vivo, Kochia scoparia; set-up: key: 0 = no effect, 100 = complete control
Text: as §1

mustard, wild = experiment: Test D pre-/postemergence herbicide test; assay type: in vivo, Sinapis arvensis; conditions: for Plant response rating: Mustard, Wild, scale 0 to 100; for Plant response rating, Mustard, Wild: scale 0 to 100 (0 no effect, 100 complete control)
Text: Seeds of plant species selected from bluegrass (annual bluegrass, Poa annua), blackgrass (Alopecurus myosuroides), canarygrass (littleseed canarygrass, Phalaris minor), chickweed (common chickweed, Stellaria media), galium (catchweed bedstraw, Galium aparine), bromegrass, downy (downy bromegrass, Bromus tectorum), field poppy (Papaver rhoeas), field violet (Viola arvensis), foxtail, green (green foxtail, Setaria viridis), deadnettle (henbit deadnettle, Lamium amplexicaule), ryegrass, Italian (Italian ryegrass, Lolium multiflorum), kochia (Kochia scoparia), lambsquarters (Chenopodium album), oilseed rape (Brassica napus), pigweed (Amaranthus retroflexus), chamomile (scentless chamomile, Matricaria inodora), Russian thistle (Salsola kali), speedwell (bird's-eye speedwell, Veronica persica), barley, spring (spring barley, Hordeum vulgare), wheat, spring (spring wheat, Triticum aestivum), buckwheat, wild (wild buckwheat, Polygonum convolvulus), mustard, wild (wild mustard, Sinapis arvensis), oat, wild (wild oat, Avena fatua), radish, wild (wild radish, Raphanus raphanistrum), […]), barley, winter (winter barley, Hordeum vulgare), and wheat, winter (winter wheat, Triticum aestivum) were planted into a silt loam soil and treated preemergence with test chemicals formulated in a non-phytotoxic solvent mixture which included a surfactant. At the same time, these species were planted in pots containing Redi-Earth® planting medium (Scotts Company, 14111 Scottslawn Road, Marysville, Ohio 43041) comprising spaghnum peat moss, vermiculite, wetting agent and starter nutrients and treated with postemergence applications of the test chemicals formulated in the same manner. Plants ranged in height from 2 to 18 cm (1- to 4-leaf stage). Treated plants and controls were maintained in a controlled growth environment for 7 to 21 days after which time all species were compared to controls and visually evaluated. Plant response ratings, summarized in Table D, are based on a scale of 0 to 100 where 0 is no effect and 100 is complete control. A dash (-) response means no test result.

speedwell = experiment: Test D pre-/postemergence herbicide test; assay type: in vivo, Veronica persica; conditions: for Plant response rating: Postemergence, Speedwell, scale 0 to 100; for Plant response rating, Speedwell: Preemergence, scale 0 to 100 (0 no effect, 100 complete control)
In short: (§2)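 Compound applied in non-phytotoxic solvent with surfactant, either preemergence (silt loam soil) or postemergence (peat moss/vermiculite medium, 2–18 cm plants). Evaluated visually after 7 to 21 days; 0 = no effect, 100 = complete control.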

radish, wild = experiment: Test D pre-/postemergence herbicide test; assay type: in vivo, Raphanus raphanistrum; conditions: for Plant response rating: Postemergence, Radish, Wild, scale 0 to 100; for Plant response rating, Radish, Wild: Preemergence, scale 0 to 100 (0 no effect, 100 complete control)
In short: as §2

SMILES	Plant response rating, Corn (corn; 31 g ai/ha)	Plant response rating, Corn (corn; 62 g ai/ha)	Plant response rating, Corn (corn; 125 g ai/ha)	Plant response rating, Corn (corn; 250 g ai/ha)	Plant response rating, Ryegrass, Italian (ryegrass, Italian; 31 g ai/ha)	Plant response rating, Ryegrass, Italian (ryegrass, Italian; 62 g ai/ha)	Plant response rating, Ryegrass, Italian (ryegrass, Italian; 125 g ai/ha)	Plant response rating, Ryegrass, Italian (ryegrass, Italian; 250 g ai/ha)	Plant response rating, Kochia (kochia; 31 g ai/ha)	Plant response rating, Kochia (kochia; 62 g ai/ha)	Plant response rating, Kochia (kochia; 125 g ai/ha)	Plant response rating, Kochia (kochia; 250 g ai/ha)	Plant response rating (mustard, wild; Postemergence, 31 g ai/ha)	Plant response rating (mustard, wild; Postemergence, 62 g ai/ha)	Plant response rating (mustard, wild; Postemergence, 125 g ai/ha)	Plant response rating (mustard, wild; Postemergence, 250 g ai/ha)	Plant response rating, Mustard, Wild (mustard, wild; Preemergence, 62 g ai/ha)	Plant response rating, Mustard, Wild (mustard, wild; Preemergence, 31 g ai/ha)	Plant response rating (mustard, wild; Preemergence, 250 g ai/ha)	Plant response rating (speedwell; 31 g ai/ha)	also measured
O=C1NCC(c2ccc(C(F)(F)F)cc2)C1C(=O)Nc1cccc(F)c1F (racemic) [Compound 202]	0	0	40	60	0	0	25	50	95	95	95	98	85	80	80	85	0	0	75	60	Plant response rating (mustard, wild; Preemergence, 125 g ai/ha): 20; Plant response rating (speedwell; 62 g ai/ha): 75; Plant response rating (speedwell; 125 g ai/ha): 85; Plant response rating (speedwell; 250 g ai/ha): 90; Plant response rating, Speedwell (speedwell; 62 g ai/ha): 90; Plant response rating, Speedwell (speedwell; 125 g ai/ha): 90; Plant response rating, Speedwell (speedwell; 31 g ai/ha): 90; Plant response rating, Speedwell (speedwell; 250 g ai/ha): 100; Plant response rating (radish, wild; 31 g ai/ha): 50; Plant response rating (radish, wild; 62 g ai/ha): 70; Plant response rating (radish, wild; 125 g ai/ha): 75; Plant response rating (radish, wild; 250 g ai/ha): 70; Plant response rating, Radish, Wild (radish, wild; 62 g ai/ha): 0; Plant response rating, Radish, Wild (radish, wild; 125 g ai/ha): 0; Plant response rating, Radish, Wild (radish, wild; 31 g ai/ha): 0; Plant response rating, Radish, Wild (radish, wild; 250 g ai/ha): 80
O=C1NCC(c2ccc(F)c(F)c2)C1C(=O)Nc1cccc(F)c1F (centres unmarked) [Compound 17, N-(2,3-difluorophenyl)-4-(3,4-difluorophenyl)-2-oxo-3-pyrrolidinecarboxamide]	0	0	0	0	0	0	0	0	0	0	25	50	0	10	30	30	–	–	–	0	Plant response rating, Corn (corn; 16 g ai/ha): 0; Plant response rating, Ryegrass, Italian (ryegrass, Italian; 16 g ai/ha): 0; Plant response rating, Kochia (kochia; 16 g ai/ha): 0; Plant response rating (mustard, wild; Postemergence, 16 g ai/ha): 0; Plant response rating (speedwell; 16 g ai/ha): 0; Plant response rating (speedwell; 62 g ai/ha): 0; Plant response rating (speedwell; 125 g ai/ha): 0; Plant response rating (speedwell; 250 g ai/ha): 0; Plant response rating (radish, wild; 16 g ai/ha): 0; Plant response rating (radish, wild; 31 g ai/ha): 0; Plant response rating (radish, wild; 62 g ai/ha): 0; Plant response rating (radish, wild; 125 g ai/ha): 15; Plant response rating (radish, wild; 250 g ai/ha): 15
O=C1NCC(c2ccc(C(F)(F)F)cc2)C1C(=O)Nc1cccc(F)c1F (centres unmarked) [Compound 80, N-(2,3-difluorophenyl)-2-oxo-4-[4-(trifluoromethyl)phenyl]-3-pyrrolidinecarboxamide]	0	0	0	30	0	0	45	60	60	60	80	90	70	80	85	85	25	0	70	60	Plant response rating, Corn (corn; 16 g ai/ha): 0; Plant response rating, Ryegrass, Italian (ryegrass, Italian; 16 g ai/ha): 0; Plant response rating (mustard, wild; Preemergence, 125 g ai/ha): 65; Plant response rating (speedwell; 62 g ai/ha): 70; Plant response rating (speedwell; 125 g ai/ha): 70; Plant response rating (speedwell; 250 g ai/ha): 65; Plant response rating, Speedwell (speedwell; 62 g ai/ha): 85; Plant response rating, Speedwell (speedwell; 125 g ai/ha): 85; Plant response rating, Speedwell (speedwell; 31 g ai/ha): 10; Plant response rating, Speedwell (speedwell; 250 g ai/ha): 100; Plant response rating (radish, wild; 31 g ai/ha): 50; Plant response rating (radish, wild; 62 g ai/ha): 70; Plant response rating (radish, wild; 125 g ai/ha): 35; Plant response rating (radish, wild; 250 g ai/ha): 60; Plant response rating, Radish, Wild (radish, wild; 62 g ai/ha): 30; Plant response rating, Radish, Wild (radish, wild; 125 g ai/ha): 30; Plant response rating, Radish, Wild (radish, wild; 31 g ai/ha): 15; Plant response rating, Radish, Wild (radish, wild; 250 g ai/ha): 70
O=C1NC[C@H](c2cccc(C(F)(F)F)c2)[C@H]1C(=O)Nc1ccccc1F [Compound 204, (3R,4S)—N-(2-fluorophenyl)-2-oxo-4-[3-(trifluoromethyl)phenyl]-3-pyrrolidinecarboxamide]	0	0	0	40	0	0	25	30	0	0	90	40	–	–	–	–	20	0	20	–	Plant response rating, Mustard, Wild (mustard, wild; Preemergence, 125 g ai/ha): 20; Plant response rating, Speedwell (speedwell; 62 g ai/ha): 10; Plant response rating, Speedwell (speedwell; 125 g ai/ha): 10; Plant response rating, Speedwell (speedwell; 31 g ai/ha): 0; Plant response rating, Speedwell (speedwell; 250 g ai/ha): 70; Plant response rating, Radish, Wild (radish, wild; 62 g ai/ha): 0; Plant response rating, Radish, Wild (radish, wild; 125 g ai/ha): 0; Plant response rating, Radish, Wild (radish, wild; 31 g ai/ha): 0; Plant response rating, Radish, Wild (radish, wild; 250 g ai/ha): 0
